Paper PMC8273083 (ACS infectious diseases, 2021)

Experiments:
RH-strain T. gondii = experiment: T. gondii growth inhibition, RH strain; format: cell-based; details: Toxoplasma gondii, read-out: EC50 vs RH (nM)
[1] = test system: T222P strain of T. gondii; experiment: microbe, parasite or virus in culture; format: cell-based, Toxoplasma gondii
TgDHOD-VSSM = TgDHOD-VSSM (Toxoplasma gondii, UniProt Q8MXD1); experiment: TgDHOD inhibition; format: biochemical
[2] = test system: RH-strain T. gondii tachyzoites; experiment: In vivo efficacy, murine model of systemic; design: species or system CF-1 mice; details: 20 mg/kg orally once daily, in words

COc1cc2[nH]c3cc(Oc4ccc(OC(F)(F)F)cc4)ccc3c(=O)c2cc1F [Compound 27]
EC50 (RH-strain T. gondii): 0.63 nM
effect of the T222P mutation on potency ([1]; T222P versus RH strain, in words): confers resistance
EC50 ([1]; Toxoplasma gondii, read-out: EC50 vs T222P (nM)): 5.61 nM

O=C1C(O)=C([C@H]2CC[C@H](c3ccc(Cl)cc3)CC2)C(=O)c2ccccc21 [ATV, atovaquone]
Ki (TgDHOD-VSSM): 2720 nM

CCc1nc(N)nc(N)c1-c1ccc(Cl)cc1 [pyrimethamine]
survival benefit [2]: no survival benefit
